Source: patent publication US20060241073A1, “Means and methods for counteracting fatty acid accumulation” (priority 2005, published 2006)
Like-named read-outs stand apart in the source and are kept apart here.

Experiments:
[1] = tested on: phytanic acid (omega-1)-hydroxylase (cytochrome P450); experiment: in vitro; settings: human, pH 7.7
Procedure: (§1) Reactions were initiated by adding NADPH (final concentration 1 mM) and terminated by addition of 0.1 ml 1 M HCl. […] After addition of the internal standard (IS, 2 nmol 3-hydroxyheptadecanoic acid in 20 μl ethanol) the samples were extracted twice with 6 ml ethylacetate-diethylether (1:1 v/v). The organic layers were collected and the solvents evaporated. The residue was dissolved in 4 ml ethylacetate and further dried with anhydrous MgSO4 and again evaporated. […] TMS ester/ether formation was performed by incubating the samples with 40 μl BSTFA containing 1% TMCS and 10 μl pyridine at 80° C. for 1 hour. After the incubation the solution was directly used for GC-MS analysis.
(§2) FIG. 7. […] Pooled human liver microsomes were incubated with phytanic acid in the presence of different concentrations of imidazole derivatives. […] The data shown represent means of duplicate experiments.

[2] = tested on: phytanic acid omega-hydroxylase (cytochrome P450); experiment: in vitro; settings: human, pH 7.7
Procedure: as §1, §2

[3] = tested on: phytanic acid omega-hydroxylase (cytochrome P450) of pooled human liver microsomes; experiment: Phytanic acid omega-hydroxylation in pooled human liver microsomes (formation of omega-hydroxyphytanic acid, GC/MS); settings: for effect on the formation of omega-hydroxyphytanic acid / Km: pooled human liver microsomes; for effect on the formation of omega-hydroxyphytanic acid: different concentrations of imidazole derivatives (FIG. 7A)
Procedure: as §1, §2

[4] = tested on: phytanic acid omega-hydroxylase (cytochrome P450) of rat liver microsomes; experiment: Phytanic acid omega-hydroxylation in rat liver microsomes (formation of omega-hydroxyphytanic acid, GC/MS); format: biochemical; settings: for effect on the formation of omega-hydroxyphytanic acid: different concentrations of imidazole derivatives (FIG. 4A)
Procedure: (§3) To this end, Male Wistar rats fed a standard laboratory diet, were fasted overnight before sacrifice and removal of the liver. The livers were rapidly chilled and washed several times in buffer containing 250 mM sucrose, 0.5 mM EDTA, 2 mM MOPS/KOH (final pH 7.4). Subsequently, the livers were minced and homogenized with a Potter S homogenizer (B. Braun, Germany) with a teflon pestle at 500 rpm (5 strokes), followed by centrifugation of the homogenate for 10 min at 550×g. The obtained post-nuclear supernatant was subjected to centrifugation at 22,500×g for 10 min to remove mitochondria and lysosomes. Finally, the microsomal fraction was obtained by centrifugation of the supernatant for 3 h at 32,000×g. The microsomal pellet fraction was taken up in PBS containing 5 mM DTT and divided into small aliquots, which were stored at −80° C. The microsomes were sonicated 3 times for 10 s at 8 Watt before each experiment.
The standard reaction mixture consisted of 100 mM potassium phosphate buffer pH 7.4 and rat liver microsomes (1 mg/ml end concentration) plus phytanic acid dissolved in DMSO (200 μM end concentration, unless indicated otherwise). Reactions were initiated by addition of NADPH at a final concentration of 1 mM. The final reaction volume was 0.2 ml. Reactions were terminated by addition of 0.2 ml 1 M HCl. […] The internal standard (IS, 10 nmol 3-hydroxyheptadecanoic acid in 20 μl ethanol) was added to this aqueous mixture. The samples were extracted twice with 6 ml ethylacetate-diethylether (1:1 v/v). The organic layer was collected and the solvents evaporated under vacuum using a rotary evaporator at room temperature. The residue was dissolved in 4 ml ethylacetate and further dried with MgSO4. After spinning down the MgSO4, the solution was transferred to 4 ml reaction vials and the solvent evaporated under nitrogen. […] TMS ester/ether formation was performed with 40 μl N,O-bis-(trimethylsilyl)trifluoroacetamide (BSTFA) containing 1% trimethylchlorosilane (TMCS) and 10 μl pyridine. The vials were sealed with a Teflon-lined screwcap and incubated at 80° C. for 1 hour. After the incubation the solution could be directly used for GC-MS analysis.
The identity of the substrate, the internal standard, and the reaction product(s) was verified by taking mass spectra of the pertrimethylsilylated derivatives in the scanning electron impact mode.
Based on the experiments described above, I selected the following assay conditions: 0,75 mg/ml methyl-beta-cyclodextrin, 100 mM potassium phosphate (pH 7.6), 1 mM NADPH, and 200 μM phytanic acid. Under these conditions, formation of omega-hydroxyphytanic acid was linear with time up to 60 min, and with protein up to 1 mg/ml (data not shown).
FIG. 4. […] Rat liver microsomes were incubated with phytanic acid in the presence of different concentrations of imidazole derivatives. The inhibitory effect of the imidazole derivatives on the formation of omega-hydroxyphytanic acid (omega-HPA; A) and (omega-1)-hydroxyphytanic acid (B) is shown. The data shown represent means of duplicate experiments.

[5] = tested on: phytanic acid (omega-1)-hydroxylase (cytochrome P450) of rat liver microsomes; experiment: Phytanic acid (omega-1)-hydroxylation in rat liver microsomes (formation of (omega-1)-hydroxyphytanic acid, GC/MS); format: biochemical; settings: different concentrations up to 100 μM (FIG. 4B)
Procedure: as §3
The standard reaction mixture consisted of 100 mM potassium phosphate buffer pH 7.4 and rat liver microsomes (1 mg/ml end concentration) plus phytanic acid dissolved in DMSO (200 μM end concentration, unless indicated otherwise). Reactions were initiated by addition of NADPH at a final concentration of 1 mM. The final reaction volume was 0.2 ml. Reactions were terminated by addition of 0.2 ml 1 M HCl. […]

Compound: c1ccc(-c2ccc(C(c3ccccc3)n3ccnc3)cc2)cc1 (stereo not drawn) [Bifonazole]
- IC50 [1]: < 2000 nM
- IC50 [2]: 13 µM
- effect on the formation of omega-hydroxyphytanic acid [3]: inhibit product formation
- effect on the formation of omega-hydroxyphytanic acid [4]: most potent inhibitor

Compound: Clc1ccccc1C(c1ccccc1)(c1ccccc1)n1ccnc1 [Clotrimazole]
- IC50 [1]: 3000 nM
- IC50 [2]: 43 µM
- effect on the formation of omega-hydroxyphytanic acid [3]: inhibit product formation
- effect on the formation of omega-hydroxyphytanic acid [4]: inhibited
- effect on the formation of (omega-1)-hydroxyphytanic acid [5]: stimulatory effect at low concentrations with little inhibition at the highest concentrations used

Compound: CC(=O)N1CCN(c2ccc(OCC3COC(Cn4ccnc4)(c4ccc(Cl)cc4Cl)O3)cc2)CC1 (stereo not drawn) [Ketoconazole]
- effect on the formation of omega-hydroxyphytanic acid [4]: inhibited

Compound: Clc1ccc(COC(Cn2ccnc2)c2ccc(Cl)cc2Cl)c(Cl)c1 (stereo not drawn) [Miconazole]
- IC50 [1]: < 2000 nM
- IC50 [2]: 30 µM
- effect on the formation of omega-hydroxyphytanic acid [3]: inhibit product formation
- effect on the formation of omega-hydroxyphytanic acid [4]: inhibited
- effect on the formation of (omega-1)-hydroxyphytanic acid [5]: most potent inhibitor

Compound: NC(=O)C1=CN([C@@H]2O[C@H](COP(=O)(O)OP(=O)(O)OC[C@H]3O[C@@H](n4cnc5c(N)ncnc54)[C@H](OP(=O)(O)O)[C@@H]3O)[C@@H](O)[C@H]2O)C=CC1 [NADPH]
- Km ([3]; read-out: Km for NADPH, NADPH-regenerating system, Lineweaver Burke plot (FIG. 6C), means of duplicate experiments): 2 µM
- Km ([4]; NADPH regenerating system, Lineweaver-Burke plot (FIG. 3C), read-out: apparent Km for NADPH): 35 µM

Compound: CC(C)CCCC(C)CCCC(C)CCCC(C)CC(=O)O (stereo not drawn) [phytanic acid, 3,7,11,15-tetramethylhexadecanoic acid]
- ratio omega:(omega-1) hydroxylated products ([3]; pooled human microsomes, four separate experiments): 15.4±0.7
- Km ([3]; read-out: apparent Km for phytanic acid, estimated as substrate concentration with half maximal omega-hydroxylation activity (FIG. 6D)): 80 µM
- Km ([4]; fixed molar ratio phytanic acid/methyl-beta-cyclodextrin (FIG. 3D), read-out: apparent Km for phytanic acid): 114 ± 9 µM
- ratio omega:(omega-1) hydroxylated products ([4]; four separate experiments): 2.2±0.2
